Reference: ChEMBL document CHEMBL1201862, “PubChem BioAssay data set” (2004)
“And” between values parts separate entries of the source, which are not always exact repeats. Equal entries are not always repeated.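 Five concentrations, 48 hours, 96-well plates. GI50: concentration for 50% inhibition of growth.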 The source made the active and inactive calls. Rule as the data show it: active = GI50 up to about 1.1 µM and inactive = higher.

Assays:
Test in all cases: NCI-60 cell line screen, 48 h
[1] = test system: IGROV-1
[2] = test system: K562
[3] = test system: SNB-19
[4] = test system: SF-268
[5] = test system: ACHN
[6] = test system: U-251
[7] = test system: 786-0
[8] = test system: HCT-15
[9] = test system: CAKI-1
[10] = test system: TK-10
[11] = test system: SK-MEL-28
[12] = test system: Hs-578T
[13] = test system: UACC-257
[14] = test system: DU-145
[15] = test system: NCI/ADR-RES
[16] = test system: NCI-H23
[17] = test system: SNB-75
[18] = test system: PC-3
[19] = test system: SK-OV-3
[20] = test system: MOLT-4
[21] = test system: OVCAR-8
[22] = test system: A498
[23] = test system: RPMI-8226
[24] = test system: SK-MEL-5
[25] = test system: OVCAR-3
[26] = test system: SR
[27] = test system: HOP-92
[28] = test system: A549
[29] = test system: T47D
[30] = test system: MDA-MB-435
[31] = test system: Malme-3M
[32] = test system: HT-29
[33] = test system: MCF7
[34] = test system: HOP-62
[35] = test system: EKVX
[36] = test system: OVCAR-5
[37] = test system: SW-620
[38] = test system: CCRF-CEM
[39] = test system: MDA-MB-231
[40] = test system: RXF 393
[41] = test system: LOX IMVI
[42] = test system: M14
[43] = test system: KM12
[44] = test system: SF-295
[45] = test system: MDA-N
[46] = test system: UO-31
[47] = test system: NCI-H460
[48] = test system: SK-MEL-2
[49] = test system: NCI-H226
[50] = test system: UACC-62
[51] = test system: HCC 2998
[52] = test system: NCI-H522
[53] = test system: HL-60
[54] = test system: OVCAR-4
[55] = test system: COLO 205
[56] = test system: SN12C
[57] = test system: HCT-116
[58] = test system: SF-539

C[C@@H](Br)[C@@H]1CC[C@H]2c3[nH]c4ccccc4c3CCN2C1
GI50 [1]: 12.1 µM (inactive)
GI50 [2]: 15.5 µM (inactive)
GI50 [3]: 20.1 µM (inactive)
GI50 [4]: 26.8 µM (inactive)
GI50 [5]: 33.8 µM (inactive)
GI50 [6]: 21.5 µM (inactive)
GI50 [7]: 18.6 µM (inactive)
GI50 [8]: 17.5 µM
GI50 [9]: 16.6 µM (inactive)
GI50 [10]: 31.7 µM (inactive)
GI50 [11]: 24.4 µM (inactive)
GI50 [12]: 13.3 µM (inactive)
GI50 [13]: 27.4 µM (inactive)
GI50 [14]: 29.3 µM (inactive)
GI50 [15]: 20.2 µM (inactive)
GI50 [16]: 20.5 µM (inactive)
GI50 [17]: 18.5 µM (inactive)
GI50 [18]: 22.4 µM (inactive)
GI50 [19]: 24.7 µM (inactive)
GI50 [20]: 17.7 µM (inactive)
GI50 [21]: 26.9 µM (inactive)
GI50 [22]: 31.2 µM (inactive)
GI50 [23]: 13.6 µM (inactive)
GI50 [24]: 15.9 µM (inactive)
GI50 [25]: 15.6 µM (inactive)
GI50 [26]: 16.5 µM (inactive)
GI50 [27]: 18.1 µM (inactive)
GI50 [28]: 34.4 µM (inactive)
GI50 [29]: 16.5 µM (inactive)
GI50 [30]: 16.3 µM (inactive)
GI50 [31]: 18.8 µM (inactive)
GI50 [32]: 25 µM (inactive)
GI50 [33]: 23.7 µM (inactive)
GI50 [34]: 18.6 µM (inactive)
GI50 [35]: 33.1 µM (inactive)
GI50 [36]: 34.4 µM (inactive)
GI50 [37]: 21.8 µM (inactive)
GI50 [38]: 17.5 µM (inactive)
GI50 [39]: 16.1 µM (inactive)
GI50 [40]: 20.4 µM (inactive)
GI50 [41]: 16.5 µM (inactive)
GI50 [42]: 19.8 µM (inactive)
GI50 [43]: 14.5 µM (inactive)
GI50 [44]: 19.5 µM (inactive)
GI50 [45]: 19.4 µM (inactive)
GI50 [46]: 24.8 µM (inactive)
GI50 [47]: 22.5 µM (inactive)
GI50 [48]: 20.6 µM (inactive)
GI50 [49]: 28.6 µM (inactive)
GI50 [50]: 14.5 µM (inactive)
GI50 [51]: 16 µM (inactive)
GI50 [52]: 13.2 µM (inactive)
GI50 [53]: 20 µM (inactive)
GI50 [54]: 28 µM (inactive)
GI50 [55]: 13.5 µM (inactive)

COc1ccc(N/N=C/C2=CC(C)(C)C(C#N)(C#N)C(O)=C2C#N)cc1
GI50 [1]: 46.9 µM (inactive)
GI50 [2]: 16.1 µM (inactive)
GI50 [3]: 56.6 µM (inactive)
GI50 [4]: 41 µM (inactive)
GI50 [5]: 40.4 µM (inactive)
GI50 [6]: 45.1 µM (inactive)
GI50 [7]: 38.5 µM (inactive)
GI50 [8]: 14.1 µM
GI50 [9]: 36.6 µM (inactive)
GI50 [10]: > 100 µM (inactive)
GI50 [11]: 91.2 µM (inactive)
GI50 [12]: 44.7 µM (inactive)
GI50 [13]: 25 µM (inactive)
GI50 [14]: 77.8 µM (inactive)
GI50 [15]: 37 µM (inactive)
GI50 [16]: 35.9 µM (inactive)
GI50 [17]: > 100 µM (inactive)
GI50 [18]: 27.8 µM (inactive)
GI50 [20]: 28.4 µM (inactive)
GI50 [21]: 28.7 µM (inactive)
GI50 [22]: 37.9 µM (inactive)
GI50 [23]: 35.6 µM (inactive)
GI50 [24]: 69.7 µM (inactive)
GI50 [25]: 21.6 µM (inactive)
GI50 [26]: 11.5 µM (inactive)
GI50 [56]: 47.4 µM (inactive)
GI50 [27]: 17.1 µM (inactive)
GI50 [28]: 25.6 µM (inactive)
GI50 [29]: 35.6 µM (inactive)
GI50 [30]: 65.3 µM (inactive)
GI50 [31]: 29.4 µM (inactive)
GI50 [32]: 43.1 µM (inactive)
GI50 [33]: 35.8 µM (inactive)
GI50 [34]: 43.6 µM (inactive)
GI50 [35]: 66.5 µM (inactive)
GI50 [36]: 69.8 µM (inactive)
GI50 [37]: 40.9 µM (inactive)
GI50 [38]: 35.5 µM (inactive)
GI50 [39]: 34.3 µM (inactive)
GI50 [40]: 36.6 µM (inactive)
GI50 [57]: 39 µM (inactive)
GI50 [41]: 31.4 µM (inactive)
GI50 [42]: 54.2 µM (inactive)
GI50 [43]: 32.5 µM (inactive)
GI50 [44]: 36.6 µM (inactive)
GI50 [45]: 54.5 µM (inactive)
GI50 [46]: 20.5 µM (inactive)
GI50 [58]: 26.1 µM (inactive)
GI50 [47]: 20.9 µM (inactive)
GI50 [48]: 49.2 µM (inactive)
GI50 [49]: 77.8 µM (inactive)
GI50 [50]: 62.2 µM (inactive)
GI50 [52]: 37.7 µM (inactive)
GI50 [53]: 37.7 µM (inactive)
GI50 [54]: 50 µM (inactive)
GI50 [55]: 22.5 µM (inactive)

Cc1cc(O)c2c(c1)C(=O)C=CC2=O [RAMENTACEONE]
GI50 [1]: 14.1 µM (inactive) and 9.38 µM (inactive)
GI50 [3]: 20.6 µM (inactive) and 17.1 µM (inactive)
GI50 [4]: 17.7 µM (inactive) and 10.4 µM (inactive)
GI50 [12]: 19.4 µM (inactive) and 15.7 µM (inactive)
GI50 [13]: 5.25 µM (inactive) and 4.05 µM (inactive)
GI50 [14]: 19.7 µM (inactive) and 16.4 µM (inactive)
GI50 [15]: 8.15 µM (inactive) and 15.9 µM (inactive)
GI50 [16]: 8.39 µM (inactive) and 12.4 µM (inactive)
GI50 [17]: 15.5 µM (inactive) and 16.6 µM (inactive)
GI50 [18]: 11.2 µM (inactive) and 17.7 µM (inactive)
GI50 [19]: 27.9 µM (inactive) and 28 µM (inactive)
GI50 [20]: 424 nM (active) and 298 nM (active)
GI50 [22]: 22 µM (inactive) and 31.4 µM (inactive)
GI50 [25]: 1.66 µM (inactive) and 2.27 µM (inactive)
GI50 [56]: 7.76 µM (inactive) and 12.1 µM (inactive)
GI50 [28]: 25.4 µM (inactive) and 19.1 µM (inactive)
GI50 [29]: 2.65 µM (inactive) and 3.11 µM (inactive)
GI50 [32]: 7.05 µM (inactive) and 5.74 µM (inactive)
GI50 [33]: 7.05 µM (inactive) and 4.79 µM (inactive)
GI50 [34]: 19.5 µM (inactive) and 21 µM (inactive)
GI50 [36]: 19.4 µM (inactive) and 18 µM (inactive)
GI50 [38]: 121 nM (active) and 212 nM (active)
GI50 [39]: 5.06 µM (inactive) and 9.31 µM (inactive)
GI50 [40]: 4.41 µM (inactive) and 2.7 µM (inactive)
GI50 [57]: 4.34 µM (inactive) and 3.72 µM (inactive)
GI50 [41]: 3.04 µM (inactive) and 5.55 µM (inactive)
GI50 [42]: 6.68 µM (inactive) and 8.77 µM (inactive)
GI50 [43]: 14.1 µM (inactive) and 16.1 µM (inactive)
GI50 [44]: 16.5 µM (inactive) and 17.4 µM (inactive)
GI50 [45]: 2.21 µM (inactive) and 3.56 µM (inactive)
GI50 [46]: 4.69 µM (inactive) and 2.91 µM (inactive)
GI50 [58]: 16.9 µM (inactive) and 14.9 µM (inactive)
GI50 [47]: 19.3 µM (inactive) and 16.3 µM (inactive)
GI50 [48]: 14.9 µM (inactive) and 19.1 µM (inactive)
GI50 [49]: 18.6 µM (inactive) and 17.8 µM (inactive)
GI50 [50]: 4.72 µM (inactive) and 7.38 µM (inactive)
GI50 [51]: 11.2 µM (inactive) and 15.6 µM (inactive)
GI50 [55]: 3.92 µM (inactive) and 2.74 µM (inactive)
